Assay results: ChEMBL document CHEMBL4339198, “Use of a Conformational-Switching Mechanism to Modulate Exposed Polarity: Discovery of CCR2 Antagonist BMS-741672” (ACS Med Chem Lett, 2019)
Activity calls are given as the source filed them. No cut-off for these calls is given here.

Columns and labels:
[1] = Oral bioavailability in cynomolgus monkey; details: in vivo
[2] = Half life in iv dosed rat; details: in vivo
[3] = Toxicity in rat measured after 14 days; details: in vivo, 336 h
[4] = Stability in human liver microsomes assessed as parent compound remaining at 3 uM measured after 10 mins; format: ADME, Microsome; details: read-out: Stability
Cynomolgus monkey = assay: In vivo antagonist activity at CCR2 in po dosed cynomolgus monkey assessed as inhibition of MCP1-induced chemotaxis administered once daily for three days followed by MCP1 stimulation and measured after 18 hrs; format: functional, organism-based; details: Macaca fascicularis
Mus musculus = assay: Protection against C57BL/6-SVJ12 mouse model of thioglycollate-induced peritonitis administered orally 1 hr prior to thioglycollate-stimulation for 48 hrs and subsequent bid dosing for 3 days following 1 hr thioglycollate-stimulation measured by Wright-Giemsa Staining based flow cytometry; format: functional, organism-based
hERG (KCNH2) [5] = biological target: T1, hERG (KCNH2) (Homo sapiens, UniProt Q12809); assay: in vitro
T1 sequence (Q12809 whole entry): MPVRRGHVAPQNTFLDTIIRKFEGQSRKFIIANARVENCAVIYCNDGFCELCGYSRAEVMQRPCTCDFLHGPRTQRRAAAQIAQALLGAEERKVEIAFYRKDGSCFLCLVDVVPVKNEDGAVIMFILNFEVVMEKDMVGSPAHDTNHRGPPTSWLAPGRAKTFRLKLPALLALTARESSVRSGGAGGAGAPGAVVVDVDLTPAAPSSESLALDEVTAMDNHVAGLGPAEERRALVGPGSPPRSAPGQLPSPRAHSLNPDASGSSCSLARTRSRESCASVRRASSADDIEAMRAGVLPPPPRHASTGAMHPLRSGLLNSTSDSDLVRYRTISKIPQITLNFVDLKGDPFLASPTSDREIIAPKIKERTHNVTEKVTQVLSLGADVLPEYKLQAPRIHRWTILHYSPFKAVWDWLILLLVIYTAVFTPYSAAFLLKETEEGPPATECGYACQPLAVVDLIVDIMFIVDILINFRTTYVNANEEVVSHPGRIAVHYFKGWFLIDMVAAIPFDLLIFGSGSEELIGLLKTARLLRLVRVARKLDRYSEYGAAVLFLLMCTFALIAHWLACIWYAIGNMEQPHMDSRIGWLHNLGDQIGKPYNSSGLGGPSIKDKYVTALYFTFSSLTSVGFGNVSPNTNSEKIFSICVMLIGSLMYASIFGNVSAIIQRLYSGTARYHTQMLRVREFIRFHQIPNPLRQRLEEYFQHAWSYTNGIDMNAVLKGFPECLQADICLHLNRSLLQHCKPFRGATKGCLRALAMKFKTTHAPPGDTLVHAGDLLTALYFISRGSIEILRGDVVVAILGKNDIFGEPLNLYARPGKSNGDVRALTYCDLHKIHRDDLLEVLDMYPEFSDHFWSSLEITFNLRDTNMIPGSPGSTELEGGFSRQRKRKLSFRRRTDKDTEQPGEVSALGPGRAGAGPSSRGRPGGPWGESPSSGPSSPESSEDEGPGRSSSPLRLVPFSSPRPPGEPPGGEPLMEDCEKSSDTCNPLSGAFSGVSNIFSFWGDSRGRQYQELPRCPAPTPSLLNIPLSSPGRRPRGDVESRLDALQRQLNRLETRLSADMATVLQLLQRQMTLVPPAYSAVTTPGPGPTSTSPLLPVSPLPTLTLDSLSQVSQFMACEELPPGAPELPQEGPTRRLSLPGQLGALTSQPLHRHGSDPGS
Description: Inhibition of human ERG at 10 uM by manual patch-clamp assay relative to control

[6] = Drug metabolism in human liver microsomes assessed as rate of disappearance at 3 uM; format: ADME, Microsome
[7] = Toxicity in rat administered as single dose; details: in vivo
[8] = biological target: T2, C-C chemokine receptor type 5 (Homo sapiens, UniProt P51681); assay: Binding affinity to CCR5 in T-cell (unknown origin)
T2 sequence (P51681 whole entry): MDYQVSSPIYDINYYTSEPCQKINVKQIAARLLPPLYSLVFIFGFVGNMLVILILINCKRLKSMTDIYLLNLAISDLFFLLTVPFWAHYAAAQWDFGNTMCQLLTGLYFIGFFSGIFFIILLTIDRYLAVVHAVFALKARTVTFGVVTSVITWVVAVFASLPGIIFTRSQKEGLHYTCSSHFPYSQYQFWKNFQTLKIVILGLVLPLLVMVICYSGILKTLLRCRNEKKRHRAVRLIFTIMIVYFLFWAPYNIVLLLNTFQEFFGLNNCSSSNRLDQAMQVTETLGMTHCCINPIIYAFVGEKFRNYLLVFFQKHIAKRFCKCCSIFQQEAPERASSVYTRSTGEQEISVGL

[9] = Half life in iv dosed cynomolgus monkey; details: in vivo
[10] = Oral bioavailability in mouse; format: ADME, organism-based; details: in vivo
[11] = Clearance in iv dosed mouse; format: ADME, organism-based; details: in vivo
[12] = biological target: T2, C-C chemokine receptor type 5
Description: Antagonist activity at CCR5 (unknown origin) expressed in human HT1080 cells assessed as blockade of MIP1beta-binding to receptor

[13] = Toxicity in monkey administered as single dose; set-up: species or system Macaca mulatta; details: rhesus monkey, in vivo
[14] = Cardiotoxicity in telemetered monkey assessed as changes in QTc interval at 30 mg/kg; format: toxicity, organism-based, Macaca mulatta; details: rhesus monkey, in vivo
[15] = Permeability of the compound at pH 7.4 by PAMPA; format: ADME; details: read-out: permeability
[16] = biological target: C-C chemokine receptor type 2 (Homo sapiens, UniProt P41597)
Chain of C-C chemokine receptor type 2 (P41597 whole entry): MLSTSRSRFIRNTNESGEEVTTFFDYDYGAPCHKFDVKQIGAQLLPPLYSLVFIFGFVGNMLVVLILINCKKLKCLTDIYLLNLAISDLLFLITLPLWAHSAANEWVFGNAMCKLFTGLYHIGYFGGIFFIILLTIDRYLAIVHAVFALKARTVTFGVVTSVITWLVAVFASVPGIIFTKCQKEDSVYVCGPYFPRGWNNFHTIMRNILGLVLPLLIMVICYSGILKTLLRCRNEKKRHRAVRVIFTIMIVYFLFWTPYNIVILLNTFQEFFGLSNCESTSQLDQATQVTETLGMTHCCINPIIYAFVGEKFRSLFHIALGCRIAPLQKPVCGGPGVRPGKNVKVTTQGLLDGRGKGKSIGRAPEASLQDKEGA
Description: Displacement of [125I]MCP1 from CCR2 in human PBMC measured after 30 mins

hERG (KCNH2) [17] = biological target: T1, hERG (KCNH2); assay: Inhibition of human ERG at 30 uM by manual patch-clamp assay relative to control

| SMILES | bioavailability [1] | half-life [2] | Activity [3] | remaining at 10 min, 3 µM [4] | inhibition (Cynomolgus monkey) | Activity (Mus musculus) | inhibition at 10 µM (hERG (KCNH2) [5]) | Drug metabolism [6] | Activity [7] | Kd [8] | half-life [9] | bioavailability [10] | clearance [11] | IC50 [12] | Activity [13] | Activity [14] | Papp [15] | IC50 [16] | inhibition at 30 µM (hERG (KCNH2) [17]) |
| --- | --- | --- | --- | --- | --- | --- | --- | --- | --- | --- | --- | --- | --- | --- | --- | --- | --- | --- | --- |
| CC(=O)N[C@@H]1C[C@H](N(C)C(C)C)CC[C@@H]1N1CC[C@H](Nc2ncnc3ccc(C(F)(F)F)cc23)C1=O | 46% | 5.1 h | Non-Toxic | 95% | Active | Active | 33% | 0.01 nmol/min | Non-Toxic | 23.6 nM | 3.2 h | 28% | 38 mL/min/kg | 780 nM | Non-Toxic | Non-Toxic |  |  |  |
| CC(C)N(C)[C@@H]1CC[C@H](N2CC[C@H](NC(=O)c3cccc(C(F)(F)F)c3)C2=O)[C@H](NS(C)(=O)=O)C1 |  |  |  | 85% |  |  |  | 0.05 nmol/min |  |  |  | 35% | 258 mL/min/kg | 3470 nM |  |  | 59.3 ×10⁻⁶ cm/s | 1.9 nM |  |
| CCC[C@@H]1C[C@H](N(C)C(C)C)CC[C@@H]1N1CC[C@H](Nc2ncnc3ccc(C(F)(F)F)cc23)C1=O |  |  |  | 100% |  |  |  | 0 nmol/min |  |  |  |  |  |  |  |  | 52.9 ×10⁻⁶ cm/s |  |  |
| CC(C)N(C)[C@@H]1CC[C@H](N2CC[C@H](NC(=O)c3cccc(C(F)(F)F)c3)C2=O)[C@H](N(C)S(C)(=O)=O)C1 |  |  |  | 100% |  |  | 7% | 0 nmol/min |  |  |  | 11% | 67 mL/min/kg | 1570 nM |  |  | 6.5 ×10⁻⁶ cm/s | 1.4 nM |  |
| CC(C)N(C)[C@@H]1CC[C@H](N2CC[C@H](Nc3ncnc4ccc(C(F)(F)F)cc34)C2=O)[C@H](CS(C)(=O)=O)C1 |  |  |  | 99% |  |  |  | 0 nmol/min |  |  |  |  |  | 190 nM |  |  | 1.4 ×10⁻⁶ cm/s | 0.9 nM | 16% |
| CC(C)N(C)[C@@H]1CC[C@H](N2CC[C@H](NC(=O)c3cccc(C(F)(F)F)c3)C2=O)[C@H](CS(C)(=O)=O)C1 |  |  |  | 100% |  |  |  | 0 nmol/min |  |  |  |  | 70 mL/min/kg | 1640 nM |  |  | 9.4 ×10⁻⁶ cm/s |  |  |
| CC(C)N(C)[C@@H]1CC[C@H](N2CC[C@H](Nc3ncnc4ccc(C(F)(F)F)cc34)C2=O)[C@H](NS(C)(=O)=O)C1 [BMS-741672] |  |  |  | 58% |  |  | 74% | 0.13 nmol/min |  |  |  |  |  | 287 nM |  |  | 39.4 ×10⁻⁶ cm/s | 0.4 nM |  |
